# Experiments:
# human PDHK1 (hPDHK1) = human PDHK1 (hPDHK1) (Homo sapiens (Human), UniProt Q15118); experiment: Inhibitory action of PDHK1 activity in vitro (residual PDH activity after PDHK reaction); type: biochemical; conditions: for IC50: PDH/hPDHK1 complex solution, PDHK reaction at room temperature for 45 min, NADH absorbance at 340 nm, read-out: hPDK1 IC50; for inhibition at 0.003 µM: at 3 nmol/L, shown when IC50 value could not be calculated, read-out: hPDHK1 inhibitory rate at the lowest concentration of the test compound
# Outline: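 N-FLAG hPDHK1 (E. coli-expressed, 0.5 μg/mL) precomplexed overnight at 4 °C with porcine heart PDH (0.025 U/mL), then reacted 45 min at room temperature with compound and ATP (0.353 μmol/L as added) in MOPS pH 7.0 buffer. Residual PDH activity after 90 min with pyruvate, CoA, NAD, TPP read as NADH at 340 nm.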
# human PDHK2 (hPDHK2) = human PDHK2 (hPDHK2) (Homo sapiens (Human), UniProt Q15119); experiment: Inhibitory action of PDHK2 activity in vitro (residual PDH activity after PDHK reaction); type: biochemical; conditions: for IC50: PDH/hPDHK2 complex solution, PDHK reaction at room temperature for 45 min, NADH absorbance at 340 nm, read-out: kPDK2 IC50; for hPDHK2 inhibitory rate at the lowest concentration of the test compound: lowest concentration of the test compound in the assay (<3 nmol/L), shown when IC50 value could not be calculated
# Outline: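 Indirect assay: FLAG-tagged hPDHK2 (0.5 μg/mL) precomplexed overnight at 4 °C with PDH (0.025 U/mL), then kinase reaction with compound and ATP 45 min at room temperature, pH 7.0 MOPS buffer. Residual PDH activity measured after 90 min with pyruvate, CoA, NAD, TPP as NADH absorbance at 340 nm, corrected for compound effect on PDH-only blank.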
# Sequence of human PDHK1 (hPDHK1) (Q15118 29-436): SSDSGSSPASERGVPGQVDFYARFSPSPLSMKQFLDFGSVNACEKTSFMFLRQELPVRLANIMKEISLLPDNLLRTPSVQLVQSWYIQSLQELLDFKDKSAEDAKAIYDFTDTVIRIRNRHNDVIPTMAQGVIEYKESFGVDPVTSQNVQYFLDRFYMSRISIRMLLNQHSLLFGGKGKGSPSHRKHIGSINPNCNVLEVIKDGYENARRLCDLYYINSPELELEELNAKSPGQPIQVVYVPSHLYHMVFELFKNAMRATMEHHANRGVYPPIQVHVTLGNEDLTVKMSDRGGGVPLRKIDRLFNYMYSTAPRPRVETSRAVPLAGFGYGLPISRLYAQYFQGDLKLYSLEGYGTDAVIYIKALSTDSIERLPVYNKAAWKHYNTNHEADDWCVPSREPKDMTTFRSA
IC50 (human PDHK1 (hPDHK1)) [nM],inhibition at 0.003 µM (human PDHK1 (hPDHK1)) [%],IC50 (human PDHK2 (hPDHK2)) [nM],hPDHK2 inhibitory rate at the lowest concentration of the test compound (human PDHK2 (hPDHK2)) [%],SMILES
29,–,36,–,C[C@H]1CN(C(=O)c2cc3ccccc3o2)Cc2cnc([C@@](C)(O)C(F)(F)F)n21 [Example 13]
11,–,11,–,C[C@H]1CN(C(=O)c2c3c(F)cc(F)cc3nn2C)Cc2cnc([C@@](C)(O)C(F)(F)F)n21 [Example 6]
5,–,7,–,Cc1cc(C#N)ccc1-c1cc(C(=O)N2Cc3cnc([C@@](C)(O)C(F)(F)F)n3[C@@H](C)C2)ccn1 [Example 63]
4,–,4,–,C[C@H]1CN(C(=O)c2cc(C3(C)CC3)nn2C)Cc2onc([C@@](C)(O)C(F)(F)F)c21 [Example 118]
< 3,73,4,–,C[C@H]1CN(C(=O)c2cccc(-c3ccc(F)cc3)n2)Cc2cnc([C@@](C)(O)C(F)(F)F)n21 [Example 38]
< 3,61,4,–,C[C@H]1CN(C(=O)[C@@H]2c3ccccc3CCN2C)Cc2onc([C@@](C)(O)C(F)(F)F)c21 [Example 106]
5,–,11,–,C[C@H]1CN(C(=O)c2ccc(F)c(-c3ccncc3C#N)c2)Cc2cnc([C@@](C)(O)C(F)(F)F)n21 [Example 84]
< 3,53,5,–,C[C@H]1CN(C(=O)c2ccnc(-c3ccc(F)cc3C#N)c2)Cc2cnc([C@@](C)(O)C(F)(F)F)n21 [Example 54]
< 3,52,4,–,C[C@H]1CN(C(=O)c2cc(-c3ccc(F)cc3)ncc2F)Cc2cnc([C@@](C)(O)C(F)(F)F)n21 [Example 86]
12,–,10,–,C[C@H]1CN(C(=O)c2ccc(C#N)c(C3CC3)c2)Cc2cnc([C@@](C)(O)C(F)(F)F)n21 [Example 28]
6,–,7,–,"C[C@H]1CN(C(=O)c2cc(-c3ccc(C#N)cn3)nn2C)Cc2cnc([C@@](C)(O)C(F)(F)F)n21 [Example 73, 6-(1-methyl-5-((S)-5-methyl-3-((R)-1,1,1-trifluoro-2-hydroxypropan-2-yl)-5,6,7,8-tetrahydroimidazo[1,5-a]pyrazine-7-carbonyl)-1H-pyrazol-3-yl)nicotinonitrile]"
6,–,15,–,C[C@H]1CN(C(=O)c2ccnc(N3CCC(F)(F)CC3)c2)Cc2cnc([C@@](C)(O)C(F)(F)F)n21 [Example 95]
49,–,34,–,C[C@H]1CN(C(=O)c2cnc3ccc(F)cn23)Cc2cnc([C@@](C)(O)C(F)(F)F)n21 [Example 8]
12,–,16,–,C[C@H]1CN(C(=O)c2cc(-c3ccc(C#N)cc3)n(C)n2)Cc2cnc([C@@](C)(O)C(F)(F)F)n21 [Example 33]
< 3,66,< 3,53,C[C@H]1CN(C(=O)c2ccnc(-c3ccc(F)cc3)c2F)Cc2cnc([C@@](C)(O)C(F)(F)F)n21 [Example 87]
5,–,9,–,C[C@H]1CN(C(=O)C(C)(C)c2ccc(-c3nn[nH]n3)cc2)Cc2onc([C@@](C)(O)C(F)(F)F)c21 [Example 120]
6,–,9,–,Cc1c(-c2ccc(C#N)cc2)nn(C)c1C(=O)N1Cc2cnc([C@@](C)(O)C(F)(F)F)n2[C@@H](C)C1 [Example 76]
5,–,7,–,C[C@H]1CN(C(=O)c2cc(-c3ccc(S(C)(=O)=O)cc3)nn2C)Cc2cnc([C@@](C)(O)C(F)(F)F)n21 [Example 44]

# Continued, molecule first:
SMILES,IC50 (human PDHK1 (hPDHK1)) [nM],inhibition at 0.003 µM (human PDHK1 (hPDHK1)) [%],IC50 (human PDHK2 (hPDHK2)) [nM],hPDHK2 inhibitory rate at the lowest concentration of the test compound (human PDHK2 (hPDHK2)) [%]
C[C@H]1CN(C(=O)c2cccc(-c3ccc(C#N)cc3)n2)Cc2cnc([C@@](C)(O)C(F)(F)F)n21 [Example 43],< 3,52,5,–
C[C@H]1CN(C(=O)c2ccc(F)c(-c3ccc(F)cn3)c2)Cc2cnc([C@@](C)(O)C(F)(F)F)n21 [Example 70],3,–,6,–
C[C@H]1CN(C(=O)c2ccc(=O)n(-c3ccc(F)cc3)c2)Cc2cnc([C@@](C)(O)C(F)(F)F)n21 [Example 57],11,–,10,–
C[C@H]1CN(C(=O)c2ccnn2C2CC2)Cc2cnc([C@@](C)(O)C(F)(F)F)n21 [Example 32],13,–,10,–
C[C@H]1CN(C(=O)c2ccc(-c3ccc(C#N)cc3)cn2)Cc2cnc([C@@](C)(O)C(F)(F)F)n21 [Example 45],9,–,8,–
C[C@H]1CN(C(=O)c2cc(-c3ccccc3)nn2C)Cc2cnc([C@@](C)(O)C(F)(F)F)n21 [Example 15],3,–,5,–
C[C@H]1CN(C(=O)c2ccc(N3CCN(C)CC3)cc2)Cc2cnc([C@@](C)(O)C(F)(F)F)n21 [Example 93],8,–,11,–
C[C@H]1CN(C(=O)C2CCC(n3cccn3)CC2)Cc2cnc([C@@](C)(O)C(F)(F)F)n21 (some centres unmarked) [Example 60],14,–,9,–
C[C@H]1CN(C(=O)c2cn(C)nc2C2CC2)Cc2onc([C@@](C)(O)C(F)(F)F)c21 [Example 121],5,–,5,–
C[C@H]1CN(C(=O)c2ccc(-c3ccc(F)cc3)cn2)Cc2cnc([C@@](C)(O)C(F)(F)F)n21 [Example 42],4,–,5,–
C[C@H]1CN(C(=O)c2ccc(C#N)c(-n3cccn3)c2)Cc2cnc([C@@](C)(O)C(F)(F)F)n21 [Example 74],6,–,11,–
C[C@H]1CN(C(=O)c2nnc(C3CC3)o2)Cc2onc([C@@](C)(O)C(F)(F)F)c21 [Example 115],6,–,8,–
C[C@H]1CN(C(=O)c2n[nH]c3c2CCC(C)(C)C3)Cc2onc([C@@](C)(O)C(F)(F)F)c21 [Example 103],< 3,67,< 3,66
"C[C@H]1CN(C(=O)c2c3ccc(C#N)cc3nn2C)Cc2cnc([C@@](C)(O)C(F)(F)F)n21 [Example 4, 2-methyl-3-((S)-5-methyl-3-((R)-1,1,1-trifluoro-2-hydroxypropan-2-yl)-5,6,7,8-tetrahydroimidazo[1,5-a]pyrazine-7-carbonyl)-2H-indazole-6-carbonitrile]",4,–,5,–
C[C@H]1CN(C(=O)c2ccc(C#N)c(-n3cc(Cl)cn3)c2)Cc2cnc([C@@](C)(O)C(F)(F)F)n21 [Example 85],< 3,49,6,–
"C[C@H]1CN(C(=O)C2Cc3ccccc3C2)Cc2cnc([C@@](C)(O)C(F)(F)F)n21 [Example 3, (2,3-dihydro-1H-inden-2-yl)((S)-5-methyl-3-((R)-1,1,1-trifluoro-2-hydroxypropan-2-yl)-5,6-dihydroimidazo[1,5-a]pyrazin-7(8H)-yl)methanone]",16,–,14,–
C[C@H]1CN(C(=O)c2cccc(-c3ccc(C#N)cn3)c2)Cc2cnc([C@@](C)(O)C(F)(F)F)n21 [Example 79],5,–,8,–
C[C@H]1CN(C(=O)c2ccc(C3(O)CCCC3)cc2)Cc2cnc([C@@](C)(O)C(F)(F)F)n21 [Example 52],4,–,6,–
Cc1nc(-c2ccc(C#N)cc2)oc1C(=O)N1Cc2cnc([C@@](C)(O)C(F)(F)F)n2[C@@H](C)C1 [Example 46],5,–,5,–
C[C@H]1CN(C(=O)c2ncccc2-c2ccc(F)cc2)Cc2cnc([C@@](C)(O)C(F)(F)F)n21 [Example 39],46,–,18,–
C[C@H]1CN(C(=O)c2cncc(-c3ccc(F)cc3C#N)c2)Cc2cnc([C@@](C)(O)C(F)(F)F)n21 [Example 72],7,–,9,–
"C[C@H]1CN(C(=O)c2ccnc(-c3ccc(F)cc3)c2)Cc2cnc([C@@](C)(O)C(F)(F)F)n21 [Example 48, (2-(4-fluorophenyl)pyridin-4-yl)((S)-5-methyl-3-((R)-1,1,1-trifluoro-2-hydroxypropan-2-yl)-5,6-dihydroimidazo[1,5-a]pyrazin-7(8H)-yl)methanone]",< 3,88,< 3,81
C[C@H]1CN(C(=O)c2nn(C)c3cc(F)cc(F)c23)Cc2cnc([C@@](C)(O)C(F)(F)F)n21 [Example 7],8,–,10,–
C[C@H]1CN(C(=O)c2c(C#N)c(C3CC3)nn2C)Cc2cnc([C@@](C)(O)C(F)(F)F)n21 [Example 19],5,–,< 3,67
C[C@H]1CN(C(=O)c2cc(-c3ccc(F)cc3)ccn2)Cc2cnc([C@@](C)(O)C(F)(F)F)n21 [Example 55],< 3,54,4,–
C[C@H]1CN(C(=O)c2ccc(F)c(-c3cncc(F)c3)c2)Cc2cnc([C@@](C)(O)C(F)(F)F)n21 [Example 83],5,–,11,–
C[C@H]1CN(C(=O)C2(C)CN(c3ccc(F)cn3)C2)Cc2cnc([C@@](C)(O)C(F)(F)F)n21 [Example 90],66,–,45,–
